Key:
[1] = tested on: HUVEC; test: Capillary-like tube formation assay; type: cell-based, human; details: designed concentrations; 6 hours; Matrigel
Experimental: To elucidate the possible mechanisms of angiogenesis inhibition, tube formation ability of ECs, which is a critical step in the process of angiogenesis, was assessed in HUVEC in vitro.
The anti-angiogenesis ability of YLT192 in vitro was evaluated using capillary tube formation assay as described previously. Briefly, 96-well plate was pre-incubated with Matrigel at 37°C for 45 minutes. Then HUVECs (2 × 10^4 cells) suspended in EGM2 medium were seeded onto the Matrigel. They were treated with various concentrations of YLT192. After 6 hours incubation at 37°C, tube formation was assessed with an OLYMPUS inverted digital camera in low power fields (50×). Vandetanib served as positive control. The assay was replicated 3 times.

[2] = tested on: COLO-205; test: Inhibition of tumor cell growth; type: cell-based; details: COLO-205, human colorectal carcinoma; 48 hour treatment; means ± SD, n=3
Text: (§1) Data are means ± SD, n=3.
(§2) cell line cell type IC50(μM) […]
COLO-205 human colorectal carcinoma 23.0 ±1.5

[3] = Pharmacokinetics in male wistar rats; type: in vivo
Text: Appropriate pharmacokinetic parameters are essential to determine the efficacy of anti-cancer drugs. We determined the pharmacokinetic characteristics of YLT192 in male wistar rats. The pharmacokinetic parameters of YLT192 are summarized in Supplementary Table S2 and the plasma concentration versus time profile is shown in Supplementary Figure S3.
Supplementary Table S2: Pharmacokinetic parameters for YLT192 in rats (n=6 mice per group). Data are means ± SD. […]
Note: I.V.=intravenous, P.O.=orally administration, Cmax =maximum plasma concentration, AUC=area under the curve, T1/2=half life of the inhibitor, CL=clearance , Vz=volume of distribution, F=bioavailability
Supplementary Figure S3. Mean plasma concentration-time curves of YLT192.
After I.V.(20mg/kg) and P.O.(50mg/kg) administration of YLT192 in wistar male rats, the concentration of YLT192 in the plasma was determined by HPLC (n=6 mice per group). Data are means ± SD.

[4] = tested on: HCT116 tumor xenografts; test: Immunohistochemistry of HCT116 xenograft tumor sections (CD31, Ki67, p-p44/42 MAPK, TUNEL); type: in vivo, mice
Experimental: To better understand the mechanism of antitumor activities in vivo, immunohistochemistry was performed using tumor tissues isolated from HCT116 at the end of the treatment. […] Furthermore, we investigated the activity of YLT192 on apoptosis in HCT116 xenograft tumors by terminal deoxynucleotidyl transferase (dUTP) nick end labeling (TUNEL) staining.
Tumour tissues obtained from the mice bearing HCT116 tumors were subjected to immunohistological analysis. Briefly, at the end of the treatment, mice were killed and tumor tissues were obtained. Then CD31 staining was conducted using frozen sections of tissue embedded in optimum cutting temperature[49] and immunohistological detection of anti-Ki67 and p-p44/42 MAPK were performed according to the manufacture's instructions using paraffin-embedded sections of tumor[50]. Apoptotic cells in the tumor tissue were detected by terminal deoxynucleotidyl transferase-mediated dUTP nick end-labeling (TUNEL) staining using an apoptotic cell detection kit (Merck Millipore).

[5] = tested on: Hela; test: Inhibition of tumor cell growth; type: cell-based; details: human epithelial carcinoma, 48 hour treatment, means ± SD, n=3
Text: as §1, §2

[6] = tested on: SPC-A1; test: Inhibition of tumor cell growth; type: cell-based; details: SPCA1; SPC-A1, human lung cancer; 48 hour treatment; means ± SD, n=3
Text: as §1, §2

[7] = tested on: MCF-7; test: Inhibition of tumor cell growth; type: cell-based; details: MCF7; MCF-7, human mammary carcinoma; 48 hour treatment; means ± SD, n=3
Text: as §1, §2

[8] = tested on: LS147T; test: Inhibition of tumor cell growth; type: cell-based; details: human colorectal carcinoma, 48 hour treatment, means ± SD, n=3
Text: as §1, §2

[9] = tested on: MDA-MB-231; test: Inhibition of tumor cell growth; type: cell-based; details: MDA-MB-231, human mammary carcinoma; 48 hour treatment; means ± SD, n=3
Text: as §1, §2

[10] = tested on: SMMC-7721; test: Inhibition of tumor cell growth; type: cell-based; details: SMMC-7721, human hepatocellular carcinoma; 48 hour treatment; means ± SD, n=3
Text: as §1, §2

[11] = tested on: MV4-11; test: Inhibition of tumor cell growth; type: cell-based; details: MV4-11, human acute myeloid leukemia; 48 hour treatment; means ± SD, n=3
Text: as §1, §2

[12] = tested on: SW620; test: Inhibition of tumor cell growth; type: cell-based; details: SW-620; SW620, human colorectal carcinoma; 48 hour treatment; means ± SD, n=3
Text: as §1, §2

[13] = tested on: SKOV-3; test: Inhibition of tumor cell growth; type: cell-based; details: SK-OV-3; SKOV-3, human ovarian carcinoma; 48 hour treatment; means ± SD, n=3
Text: as §1, §2

[14] = tested on: A431; test: Inhibition of tumor cell growth; type: cell-based; details: A-431; A431, human pidermoid carcinoma; 48 hour treatment; means ± SD, n=3
Text: as §1, §2

[15] = tested on: BEL7402; test: Inhibition of tumor cell growth; type: cell-based; details: Bel-7402; BEL7402, human hepatocellular carcinoma; 48 hour treatment; means ± SD, n=3
Text: as §1, §2

[16] = male, Wistar, rat, plasma, po, 50 mg/kg, P.O. 50 mg/kg, means ± SD, n=6

Question: Which “tube formation of HUVEC” value [1] does the source give for CNC(=O)c1cc(Oc2ccc(NC(=O)c3cccc(OC)c3)cc2)ccn1 [YLT192] here?
Answer: Its value is “strongly inhibited”.

Question: And the IC50 [2]?
Answer: The IC50 was 23 ± 1.5 µM.

Question: And the Vz ([3]; P.O. 50 mg/kg, means ± SD, n=6)?
Answer: Its Vz is 7.84 ± 1.12 L/kg.

Question: And the half-life ([3]; male, Wistar, rat, plasma, iv, 20 mg/kg, I.V. 20 mg/kg, means ± SD, n=6)?
Answer: Its half-life is 4.1 ± 2.1 h.

Question: And the AUC(0-inf) ([3]; male, Wistar, rat, plasma, iv, I.V. 20 mg/kg, means ± SD, n=6)?
Answer: Its AUC(0-inf) is 65900 ± 6200 ng·h/mL.

Question: And the Vd ([3]; male, Wistar, rat, plasma, iv, I.V. 20 mg/kg, means ± SD, n=6, read-out: Vz)?
Answer: The Vd was 1.79 ± 0.24 L/kg.

Question: And the bioavailability ([3]; male, Wistar, rat, plasma, oral, P.O. 50 mg/kg vs I.V. 20 mg/kg, read-out: F (oral bioavailability))?
Answer: Its bioavailability is 50.5%.

Question: And the Cmax [3, 16]?
Answer: Its Cmax is 4100 ± 400 ng/mL.

Question: And the half-life [3, 16]?
Answer: Its half-life is 9.1 ± 4.1 h.

Question: What about the AUC(0-inf) ([3]; male, Wistar, rat, plasma, po, P.O. 50 mg/kg, means ± SD, n=6) of the same molecule?
Answer: The AUC(0-inf) was 83300 ± 21900 ng·h/mL.

Question: What about the “apoptotic cells in the tumor tissues, TUNEL staining” value ([4]; 100 mg/kg) of the same molecule?
Answer: The value was “increased apoptotic cells”.

Question: And the “phosphorylation of p44/42 MAPK (p-ERK) in tumor tissues” value ([4]; 100 mg/kg)?
Answer: Its value is “significant decrease”.

Question: What about the “reduction of microvessel density (MVD)” value ([4]; 100 mg/kg oral daily, anti-CD31, vs vehicle) of the same molecule?
Answer: Its value is 69%.

Question: What about the “Ki67 staining in tumor tissues” value ([4]; 50 and 100 mg/kg, end of treatment) of the same molecule?
Answer: The value was “significant reduction”.

Question: What about the IC50 [5] of the same molecule?
Answer: The IC50 was 18.9 ± 2.4 µM.

Question: And the IC50 [6]?
Answer: The IC50 was 16.4 ± 1.4 µM.

Question: What about the IC50 [7] of the same molecule?
Answer: The IC50 was 16.8 ± 1.7 µM.

Question: What about the IC50 [8] of the same molecule?
Answer: The IC50 was 9 ± 1.1 µM.

Question: And the IC50 [9]?
Answer: Its IC50 is 11.9 ± 2.1 µM.

Question: What about the IC50 [10] of the same molecule?
Answer: Its IC50 is 12.1 ± 1.6 µM.

Question: What about the IC50 [11] of the same molecule?
Answer: The IC50 was 21.9 ± 1.9 µM.

Question: What about the IC50 [12] of the same molecule?
Answer: Its IC50 is 7.9 ± 1.7 µM.

Question: What about the IC50 [13] of the same molecule?
Answer: The IC50 was 8.2 ± 1.5 µM.

Question: What about the IC50 [14] of the same molecule?
Answer: Its IC50 is 7.7 ± 0.9 µM.

Question: And the IC50 [15]?
Answer: The IC50 was 11.3 ± 1.1 µM.
